In patent US9173878B2, “Brain function improving agent” (Tohoku University, priority 2012, dated 2015):
Counter-ions that a name gives are not always drawn.

Assays:
CaMKII [1] = experiment: CaMKII self-phosphorylation (activation) in cultured mouse cerebral cortex cell, immunoblot; assay type: cell-based; details: 100 pM, 30 minutes of incubation
Procedure: The above frozen mouse brain slice segment (hippocampus CA1 region) is used for homogenization on ice by adding 150 μL homogenizing buffer (50 mM Tris-HCl pH 7.5, 0.5% Triton X-100, 4 mM EGTA, 0.5 M NaCl, 10 mM EDTA, 1 mM Na3VO4, 30 mM sodium pyrophosphate, 50 mM NaF, 1 mM DTT, 100 nM calyculin A, 50 μg/mL leupeptin, 25 μg/mL pepstatin A, 50 μg/mL trypsin inhibitor) per sample. Then, centrifugation was performed using a refrigerated centrifuge (14,000×g, 10 minutes, 4° C.), after which 100 μL of supernatant was collected and 20 μL of 6× Laemmli buffer was added to the supernatant to be boiled at 100° C. for 3 minutes, to form an immunoblotting sample. The protein concentration was measured by the Bradford method using a part of the supernatant. Reagants containing the same amount of protein were added to 10% SDS-polyacrylamido electrophoresis gel (SDS-PAGE gel), and SDS-PAGE was performed at 80 mA per 1 sheet of gel for 180 minutes. After separation by electrophoresis, transcription to a PVDF membrane was performed at 70 V for 120 minutes. […] After washing with a TTBS solution, ECL detection system (GE healthcare) was used to induce luminescence of HRP that labels the second antibody, and the X-ray film (Fuji Medical X-ray Film, Fuji Film) was sensitized to detect the band. An NIH image analysis software was used for a quantification analysis of the immunoreaction product.
The dispersion cultivation of a mouse cerebral cortex cell was performed by a previously reported method (Fukunaga et al., J. Biol. Chem. 267, 22527-22533, 1992). […] The frozen cerebral cortex cells were subjected to quantification analysis of the activation state (self-phosphorylation reaction) of CaMKII by the immunoblotting method after homogenization, similarly to the method in Test Example 2.

[2] = system: mouse hippocampus CA1 region; experiment: Long-term potentiation of synaptic transmission (LTP), fEPSP in hippocampus slice; assay type: cell-based; details: 100 pM in artificial cerebrospinal fluid
Procedure: (§1) The brain of a male mouse C57BL/6 (10-12 weeks old) was sagitally sectioned, then a coronal section brain slice (400 μm) including a hippocampus CA1 region was prepared. The hippocampus slice was recovered in an artificial cerebrospinal fluid (126 mM NaCl, 5 mM KCl, 26 mM NaHCO3, 1.3 mM MgSO4-7H2O, 1.26 mM KH2PO4, 2.4 mM CaCl2-2H2O, 10 mM glucose) saturated by a 95% O2/5% CO2 gas at 34° C. for 2 hours. The hippocampus slice was transferred to a measurement chamber, and ST101 (100 pM), SAK1 (100 pM), SAK3 (100 pM) were added to the artificial cerebrospinal fluid, and perfused. Then, the Schaffer branch to be input to the hippocampus CA1 region and the commissural fibers were stimulated by stimulus electrodes, and the postsynaptic potential (fEPSP; field excitatory postsynaptic potential) in the CA1 region induced thereby was measured. After measurement, just the hippocampus CA1 region was sliced from the slice segment, and frozen for preservation at −80° C. for measurement with immunoblotting.

CaMKII [3] = experiment: CaMKII self-phosphorylation (activation) in hippocampus CA1 region, immunoblot; assay type: cell-based, mouse; details: hippocampus CA1 region 60 minutes after LTP, 100 pM
Procedure: as §1, with “After measurement, just the hippocampus CA1 region was sliced from the slice segment, and frozen for preservation at −80° C. for measurement with immunoblotting.” left out
The above frozen mouse brain slice segment (hippocampus CA1 region) is used for homogenization on ice by adding 150 μL homogenizing buffer (50 mM Tris-HCl pH 7.5, 0.5% Triton X-100, 4 mM EGTA, 0.5 M NaCl, 10 mM EDTA, 1 mM Na3VO4, 30 mM sodium pyrophosphate, 50 mM NaF, 1 mM DTT, 100 nM calyculin A, 50 μg/mL leupeptin, 25 μg/mL pepstatin A, 50 μg/mL trypsin inhibitor) per sample. […] The protein concentration was measured by the Bradford method using a part of the supernatant. […]

[4] = system: non-transfected mouse neuroblastoma cell line Neuro2A; experiment: Calcium imaging (Fura-2) in T-type calcium channel non-expressing Neuro2A cells; assay type: cell-based; details: Cav3.1 non-expressing cell, nicotin 1 μM
Procedure: The cells of mouse neuroblastoma cell line Neuro2A were purchased from the Human Science Research Resources Bank (#IFO50081, Osaka, Japan). […] Then, the Neuro2A cells were seeded to a glass bottom dish at a concentration of 1 to 2×10^6 cell/φ35-mm dish, and cultivated for 24 hours in a standard culture medium, and the cells were transfected using Lipofectamine 2000 (Invitrogen, Carsbad, Calif., USA) and using a plasmid vector containing a T-type calcium channel (Cav 3.1) genes (serum-free culture of Lipofectamine 2000: DNA=1 μl: 1 μg, 1.5 ml). The T-type calcium channel (Cav 3.1) gene, the plasmid vector pCMV-SPORT6, and the Lipofectamine 2000 were respectively purchased from OriGene Technologies, Inc., Thermo Fisher Scientific Ltd., and Invitrogen, and the transfection was performed according to the protocol attached to Lipofectamine 2000 other than the rate adjustment of the Lipofectamine 2000 and plasmid vector. The serum-free culture was replaced with a standard culture 6 hours after transfect, and calcium imaging (calcium concentration measurement) was performed after Cav 3.1 expression was confirmed after 48 hours of culture. T-type calcium channel expressing Neuor2A cells were dispersed in a glass bottom dish, and 2.5 μM of Fura-2-AM (Sigma, St Louis, Mo., USA) was added to the dish in perfusion (Krebs-Hepes buffer; KRH), then the dish was incubated at 37° C. for 30 minutes. A Fura-2-AM-free KRH was replaced with perfusion, and the Neuro2A cells were stimulized with SAK3 (100 pM) as the intracellular calcium was measured with a fluorescent microscope, then the cells were further stimulized with nicotin (1 μM), ATP (0.1 μM), DHPG (20 μM), as necessary.

Alzheimer's disease = details: treating Alzheimer's disease; cited from earlier work

SMILES | phosphorylated CaMKII / activation of CaMKII (CaMKII [1]) | LTP potentiation effect [2] | also measured
CCOC(=O)C1=C(N2CCCCC2)C2(CC1=O)C(=O)N=C1C=CC=CN12 (stereo not shown) [SAK8] | increased phosphorylated CaMKII | – | –
CCOC(=O)C1=C(SC)C2(CC1=O)C(=O)N=C1C=CC=CN12 (stereo not shown) [SAK1] | – | a strong potentiation effect was observed | phosphorylated CaMKII / CaMKII activation (CaMKII [3]): an increase of phosphorylated CaMKII and a potentiation of CaMKII activation were confirmed
CCOC(=O)C1=C(N2CCCCC2)C2(CC1=O)C(=O)N=C1C(C)=CC(C)=CN12 (stereo not shown) [SAK9] | increased phosphorylated CaMKII | – | –
CN1CCCC1c1cccnc1 (stereo not shown) [nicotin, reference compound] | – | – | change in calcium concentration after adding nicotin [4]: an increase in the calcium concentration after adding nicotin was confirmed
O=C1N=C2C=CC=CN2C12Cc1ccccc1C2 [ST101, reference compound] | – | does not show a strong LTP potentiation effect | –
COc1cc2c(cc1OC)C(=O)C(CC1CCN(Cc3ccccc3)CC1)C2 (stereo not shown) [Donepezil hydrochloride] | – | – | efficacy ratio of the clinical result (Alzheimer's disease): about 50%
